Data as given in PMC10975061, “Cellular Uptake and Transport Mechanism Investigations of PEGylated Niosomes for Improving the Oral Delivery of Thymopentin” (Pharmaceutics, 2024).
Where two headings read alike, the source gives them in different places. Peptide text beside a SMILES is read from it.

How the values were obtained:
[1] = system: Caco-2 and HT-29 co-cultured cells; assay: MTT cytotoxicity (cell viability) assay
Method: MTT assay was used for the cytotoxicity study. […] The DMEM was discarded, and the Caco-2 and HT-29 co-cultured cells were washed with PBS before introducing TP5 test samples. […] Subsequently, 20 μL of MTT (5 mg/mL) was added, and the cells were incubated for an additional 4 h. Dimethyl sulfoxide (DMSO) was introduced to dissolve the formazan crystals, and the absorbance at 570 nm was measured using a microplate UV-Vis spectrophotometer (SpectraMax® Plus, Molecular Devices, San Jose, CA, USA). The percentage of cell viability was calculated in comparison to the untreated control group.
For each test sample group and at every time point over the course of three days, cell viability was computed. The outcomes were consolidated using the SoftMax Pro v5 software system through Equation (1). (1) V=A/A0×100% where V is the cell viability, A is sample absorbance, and A0 is control absorbance.
The concentration of these selected inhibitors and enhancers was screened by cytotoxicity using Caco-2 and HT-29 co-cultured cells by MTT assay. Then, these inhibitors and enhancers with safe concentrations were added to the AP side with a 0.5 mL 1 mg/mL solution of TP5 and TP5-PEG-niosomes, respectively. All inhibitors were dissolved in dimethyl sulfoxide and diluted with HBSS. The transport characteristics of TP5 and TP5-PEG-niosomes through Caco-2 and HT-29 co-cultured cell monolayers were expressed as the cumulative transported drug and transport rate. The transport rate (Flux) was denoted in μg/min/cm^2 and computed using the formula Flux = (dM/dt)/A, where dM/dt represents the cumulative amount of TP5 in the BL side per unit time (µg/min), and A is the surface area of the insert membrane (1.1 cm^2). […] The TEER values of the monolayers were assessed at 1 h intervals throughout the experimental duration, guaranteeing the integrity of the monolayers.

[2] = system: Caco-2 and HT-29 co-cultured cells; assay: Quantitative cellular uptake of TP5 (RP-HPLC and BCA protein assay), with inhibitors and low temperature; type: in vitro ADME, human
Method: Briefly, 5 mL of Caco-2 and HT-29 co-cultured cells’ suspension at a density of 10^5 cells/cm^2 was seeded onto 60 mm plastic dishes (Corning, New York, NY, USA), fed complete DMEM every 3 days and incubated at 37 °C in an atmosphere of 5% CO2 and 95% relative humidity. […] Then, 25 µL of the cell lysates from each well were subjected to a BCA protein assay (Thermo Scientific, Waltham, MA, USA) to determine the amount of cell protein. The entire protein concentration in each group was calculated based on the linearity equation obtained from the BSA standard curve. Then, cell lysates were centrifuged for 15 min at 14,000 rpm, and the supernatants were analyzed for the amount of uptake TP5 using the RP-HPLC method mentioned earlier. The uptake of TP5 by Caco-2 and HT-29 co-cultured cells was calculated and expressed as the amount of drug (ng) uptake per µg cell protein. One of the mechanisms for cellular uptake depends on concentration. […] The treated Caco-2 and HT-29 co-cultured cells were then scraped off into a 2 mL microcentrifuge tube containing 1.0 mL extraction solution (10% Triton X-100) and sonicated to accelerate cell lysis. Then, 25 µL of the cell lysates from each well were subjected to a BCA protein assay (Thermo Scientific, Waltham, MA, USA) to determine the amount of cell protein as mentioned above. Then, cell lysates were centrifuged for 15 min at 14,000 rpm, and the supernatants were analyzed for the amount of uptake TP5 using the RP-HPLC method mentioned above. The uptake of TP5 by Caco-2 and HT-29 co-cultured cells was calculated and expressed as the amount of drug (ng) uptake per µg cell protein. […] The incubation temperature of 4 °C was also tested. After the removal of the drug solution and formulation (4 h incubation), the dishes were immediately rinsed twice with ice-cold HBSS solution (5 mL). The treated Caco-2 and HT-29 co-cultured cells were then scraped off into a 2 mL microcentrifuge tube containing 1.0 mL extraction solution (10% Triton X-100) and sonicated to accelerate cell lysis. Furthermore, 25 µL of the cell lysates from each well were subjected to a BCA protein assay (Thermo Scientific, Waltham, MA, USA) to determine the amount of cell protein mentioned above. Then, cell lysates were centrifuged for 15 min at 14,000 rpm, and the supernatants were analyzed for the amount of cellular uptake TP5 using the RP-HPLC method mentioned above. The uptake of TP5 by Caco-2 and HT-29 co-cultured cells was calculated and expressed as the amount of drug (ng) uptake per µg cell protein.

[3] = Transepithelial transport across Transwell monolayers (AP to BL), with inhibitors and enhancers; type: in vitro ADME, human; details: apical to basolateral, 6 h
Method: (§1) Caco-2 and HT-29 co-cultured cells at a density of 10^5 cells/cm^2 were seeded on 12-well Insert Transwell® inserts (0.4 µm pore diameter, 1.1 cm^2 area, Corning, New York, NY, USA). Caco-2 and HT-29 co-cultured cells were incubated at 37 °C in an atmosphere of 5% CO2 and 95% relative humidity in complete DMEM. The medium was replaced every 3 days with 0.5 mL medium on the apical (AP) side and 1.5 mL on the basolateral (BL) side, as shown in Figure 2. The integrity of the co-cultured cell monolayer was assessed by monitoring transepithelial electrical resistance (TEER). TEER measurements were conducted using a Millicell-ERS Volt-Ohm meter connected to a pair of chopstick electrodes (Millipore Corp, Boston, MA, USA). […] TEER measurements were taken at 3-day intervals until the TEER values surpassed 350 Ω·cm^2 (around 24 days post-seeding in this study). The TEER calculation utilized the formula TEER = (Rm − Rb) × A, where Rm, Rb, and A represent the measured TEER values, TEER values of the blank transwell, and the membrane surface area of the transwell (1.13 cm^2), respectively. Caco-2 monolayers with TEER values exceeding 350 Ω·cm^2 were deemed to have acceptable integrity and were considered suitable for the transport study.
(§2) Before the transport experiments, Caco-2 and HT-29 co-cultured cell monolayers underwent equilibration with HBSS for 30 min and were subsequently aspirated. All transport studies were carried out at 37 °C. A 0.5 mL solution of TP5 and TP5-PEG-niosomes (0.1 mg TP5 per mL in HBSS) was introduced on the AP side, while the BL side of the inserts contained 1.5 mL of HBSS, as depicted in Figure 2. At 0, 60, 120, 240, and 360 min of incubation, 200 µL was withdrawn from the BL-receiving chamber and immediately replaced with an equal volume of pre-warmed HBSS (37 °C). The concentration of TP5 in the transport medium was analyzed using RP-HPLC.
(§3) TP5 transport mechanisms were investigated in the absence or presence of variable inhibitors or enhancers. […] […].

[4] = system: Caco-2 and HT-29 co-cultured cell monolayers; assay: as above; type: in vitro ADME, human
Method: as §1, §2, §3

CN(C)C(=O)CCSC(SCCC(=O)O)c1cccc(/C=C/c2ccc3ccc(Cl)cc3n2)c1 (stereo not shown) [MK-571]
safe but still effective concentration for treatment ([1]; MTT, 72 h at 37 °C): 0.1 mM

C[C@H](CCC(=O)NCCS(=O)(=O)O)[C@H]1CC[C@H]2[C@@H]3[C@H](O)C[C@@H]4C[C@H](O)CC[C@]4(C)[C@H]3C[C@H](O)[C@]12C [Sodium taurocholate]
safe but still effective concentration for treatment ([1]; MTT, 72 h at 37 °C): 20 mM

CC(C)[C@H](NC(=O)[C@H](CC(=O)O)NC(=O)[C@H](CCCCN)NC(=O)[C@@H](N)CCCN=C(N)N)C(=O)N[C@@H](Cc1ccc(O)cc1)C(=O)O [TP5, thymopentin] (H-RKDVY-OH)
cellular uptake amount with adsorptive-mediated endocytosis inhibitor ([2]; 1 mM protamine sulphate, 4 h, p < 0.005): significantly reduced | cellular uptake amount at low temperature ([2]; 4 °C, 4 h): significantly decreased | time of highest amount of cellular uptake drug ([2]; HPLC and BCA assay, time course 0.5-5 h): 2 h | cellular uptake value ([2]; pure drug solution, in 2 h, maintained afterwards): 3.56 ± 1.13 ng/µg | Papp A→B ([3]; EDTA (10 mM), read-out: Papp values): 0.142 ± 0.0089 ×10⁻⁶ cm/s | Papp A→B ([3]; chlorpromazine (10 μg/mL), read-out: Papp values): 0.0573 ± 0.0063 ×10⁻⁶ cm/s | Papp A→B ([3]; lowest to highest over no treatment, inhibitors and enhancers, read-out: range of Papp values over all treatments): 0.043 to 0.134 ×10⁻⁶ cm/s | Papp A→B ([3]; no treatment, read-out: Papp values): 0.0539 ± 0.0046 ×10⁻⁶ cm/s | Papp A→B ([3]; silymarin (20 µM), read-out: Papp values): 0.043 ± 0.0055 ×10⁻⁶ cm/s | Papp A→B ([3]; sodium azide (20 mM), read-out: Papp values): 0.059 ± 0.0052 ×10⁻⁶ cm/s | Papp A→B ([3]; sodium taurocholate (20 mM), read-out: Papp values): 0.134 ± 0.0052 ×10⁻⁶ cm/s | TP5 cumulative amount with EDTA ([4]; EDTA group, after the first 60 min): increase sharply | cumulative amount of TP5 transported, comparison between groups ([4]; no treatment, AP to BL): no significant difference | TP5 cumulative amount with sodium taurocholate ([4]; sodium taurocholate group, after the first 60 min): increase sharply | cytotoxicity (MTT cell viability) ([1]; TP5 solutions 0.005 to 10 mg/mL, 24, 48 and 72 h): not toxic

CN(C)CCCN1c2ccccc2Sc2ccc(Cl)cc21 [chlorpromazine]
safe but still effective concentration for treatment ([1]; human, 72 h): 10 µg/mL

[N-]=[N+]=[N-].[Na+] [sodium azide]
safe but still effective concentration for treatment ([1]; MTT, 72 h at 37 °C): 20 mM
